From patent publication US20100197962A1 (priority 2005, published 2010)
Several values for one entry are separate records, joined by “and”; a condition that tells them apart may be missing. Equal values may be shown once.

Legend:
[1] = system: locomotor hyperactivity induced by cocaine and morphine; assay: Locomotor hyperactivity (hypermotility) induced by cocaine and morphine, Videotrack total distance; assay type: in vivo, rats; conditions: for effect on the spontaneous motility of the animal: alone, neboglamine 30 mg/kg, glycine 300 mg/kg i.p.
Experimental: The motor activity was measured with a video camera and recorded using the Videotrack 512 system as described by Garofalo (J. Pharm. Pharmacol. 48: 1290-1297, 1996).
The locomotor activity was recorded for 15 minutes and the total distance covered (in cm) by the animal was recorded by the computer connected to the video camera.

[2] = system: tolerance and abstinence crisis induced by chronic treatment with diazepam; assay: Elevated zero maze: tolerance and abstinence crisis induced by chronic treatment with diazepam; assay type: in vivo, rats
Experimental: The experiment was performed in an elevated zero maze in accordance with the procedure described by Shepard et al. (Psychopharmacology 116: 56-64, 1994) with minor changes.
The rat, placed in one of the closed quadrants, had free access to all 4 of the quadrants (2 open and 2 closed) for a period of 5 minutes. A compound with anxiolytic activity produces a percentage increase in the time spent in the free quadrants.
In the acute studies, the compounds were administered via the s.c. route 30 minutes before the experiment, whereas in the tolerance and “withdrawal” experiments, they were administered via the s.c. route twice a day for 7 days and then retested 40 hours after the end of the chronic treatment.

memory and learning = conditions: various animal models; Garofalo et al. 1996; cited from earlier work
[3] = system: inverse tolerance induced by chronic treatment with morphine; assay: Inverse tolerance (increased sensitivity) induced by chronic treatment with morphine, locomotor activity
[4] = system: locomotor hyperactivity, tolerance and dependency induced by morphine; conditions: mice; Shin et al. 2003; cited from earlier work
[5] = drug = morphine 10 mg/kg s.c., neboglamine 30 or glycine 300 mg/kg i.p. 30 min before
[6] = neboglamine 30 or glycine 300 mg/kg i.p. 30 min before morphine 10 mg/kg s.c.
[7] = neboglamine 30 or glycine 300 mg/kg i.p. 30 min before morphine 10 mg/kg s.c., recorded 15 min
[8] = substance alone with physiological saline, neboglamine 30 or glycine 300 mg/kg i.p., cocaine 20 or morphine 10 mg/kg s.c., recorded 15 min
[9] = acute, s.c. 30 min before, diazepam 5 mg/kg, neboglamine 30 mg/kg
[10] = acute, s.c. 30 min before, diazepam 5 mg/kg, neboglamine 30 mg/kg, 5 min test
[11] = neboglamine 30 mg/kg s.c. x 2 (x7 days) + 30 co-administered with chronic diazepam (D-C) + 5 (D), tolerance
[12] = withdrawal: diazepam and neboglamine for 7 days, retested 40 hours later with physiological saline
[13] = neboglamine 30 mg/kg i.p. 30 min before morphine 10 mg/kg s.c., x 7 days
[14] = withdrawal (D-W): diazepam for 7 days, retested 40 hours later with physiological saline
[15] = chronic morphine 10 mg/kg s.c. x 7 days

## (S)-4-amino-N-(4,4-dimethylcyclohexyl)glutamic acid [Neboglamine]
[1]; 30 mg/kg i.p. 30 min before cocaine 20 mg/kg s.c.
  % increase vs. physiological saline: 9.1%
[1]; 30 mg/kg i.p. 30 min before cocaine 20 mg/kg s.c., recorded 15 min
  Total distance (cm): 3600 cm
[1]
  effect on the spontaneous motility of the animal: do not significantly alter
[1]; drug = cocaine 20 mg/kg s.c., 30 mg/kg i.p. 30 min before
  % inhibition vs. the drug (D): 88%
[1]; drug = cocaine 20 mg/kg s.c., 30 mg/kg i.p. 30 min before, listed as N
  % inhibition vs. the drug (D): 88.0^(1) %
[1]; [5]
  % inhibition vs. the drug (D): 77.5%
[1]; drug = morphine 10 mg/kg s.c., neboglamine 30 or glycine 300 mg/kg i.p. 30 min before, listed as N
  % inhibition vs. the drug (D): 77.5^(1) %
[1]; [6]
  % increase vs. physiological saline: 13.6%
[1]; [7]
  Total distance (cm): 3750 cm
[1]; [8]
  Total distance (cm): 3150 cm
[2]; [9]
  % effect vs. controls (saline): 127%
[2]; [10]
  Time (seconds) spent in the open quadrants: 51 s
[2]; acute, s.c. 30 min before, diazepam 5 mg/kg, neboglamine 30 mg/kg, listed as neboglamine
  % effect vs. controls (saline): 127.0%
[2]; [11]
  % effect vs. controls (saline): 192.5%
  Time (seconds) spent in the open quadrants: 77 s
[2]; [12]
  % effect vs. controls (saline): 110.0%
  Time (seconds) spent in the open quadrants: 44 s
[2]; withdrawal: diazepam and neboglamine for 7 days, retested 40 hours later with physiological saline, listed as neboglamine
  % effect vs. controls (saline): 110%
Memory and learning
  promoting memory and learning: advantageous properties of promoting memory and learning
[3]; [13]
  % increase vs. physiological saline: 37.5%
  % inhibition of the hypersensitivity of morphine: 70.8% and 70.8^(1) %
  Total distance (cm): 3850 cm

## CN1C(=O)CN=C(c2ccccc2)c2cc(Cl)ccc21 [diazepam, reference compound]
[2]; [9]
  % effect vs. controls (saline): 262.5%
[2]; [10]
  Time (seconds) spent in the open quadrants: 105 s
[2]; chronic diazepam (D-C) 5 mg/kg s.c. x 2 (x7 days) + 5 (D), tolerance
  Time (seconds) spent in the open quadrants: 58 s
[2]; chronic diazepam (D-C) 5 mg/kg s.c. x 2 (x7 days) + 5 (D), tolerance, 5 mg/kg
  % effect vs. controls (saline): 145%
[2]; [14]
  % effect vs. controls (saline): 37.5%
  Time (seconds) spent in the open quadrants: 15 s

## COC(=O)[C@H]1[C@@H](OC(=O)c2ccccc2)C[C@@H]2CC[C@H]1N2C [Cocaine, cocaine, reference compound]
[1]; [8]
  % increase vs. physiological saline: 75.7%
  Total distance (cm): 5800 cm

## CN1CC[C@]23c4c5ccc(O)c4O[C@H]2[C@@H](O)C=C[C@H]3[C@H]1C5 [Morphine, morphine, reference compound]
[1]; [8]
  % increase vs. physiological saline: 60.6%
  Total distance (cm): 5300 cm
[3]; [15]
  % increase vs. physiological saline: 128.6%
  Total distance (cm): 6400 cm
[3]; chronic vs acute morphine 10 mg/kg s.c.
  increase in the motor activity by chronic treatment compared with the acute effect of the drug: about 50%

## NCC(=O)O [Glycine, glycine, reference compound]
[1]
  effect on the spontaneous motility of the animal: do not significantly alter
[1]; [5]
  % inhibition vs. the drug (D): 52.5%
[1]; drug = morphine 10 mg/kg s.c., neboglamine 30 or glycine 300 mg/kg i.p. 30 min before, listed as G
  % inhibition vs. the drug (D): 52.5^(2) %
[1]; [6]
  % increase vs. physiological saline: 28.8%
[1]; [7]
  Total distance (cm): 4250 cm
[1]; [8]
  Total distance (cm): 2900 cm
[4]
  inhibition of morphine-induced locomotor hyperactivity, tolerance and dependency: capable of inhibiting the locomotor hyperactivity, tolerance and dependency induced by morphine
